Structures are written as SMILES.

The results in this text go back to patent US9428493B2, “Schweinfurthin analogues” (University of Iowa Research Foundation, priority 2012, dated 2016).

This data set has as its system efflux pump. The data set is described as follows: efflux pump substrate activity. The class given is in vitro ADME. An excerpt:
For the treatment of certain diseases, it may be beneficial to have a therapeutic agent that is not an efflux pump substrate. […] In one embodiment of the invention R^2 is (C1-C15)alkyl or (C2-C15) alkenyl. In one embodiment of the invention R^4 is (C1-C15)alkyl or (C2-C15)alkenyl. In one embodiment of the invention R^4 is (C1-C6)alkyl.
Regarding `COc1cc(/C=C/c2cc(OC)c3cc[nH]c3c2)cc2c1O[C@]1(C)CC[C@@H](O)C(C)(C)[C@H]1C2` [Compound 4, reference compound], the efflux pump substrate entry is given as “found to be an efflux pump substrate”.

As to `COc1cc(/C=C/c2cc(O)c3ccn(C)c3c2)cc2c1O[C@]1(C)CC[C@@H](O)C(C)(C)[C@H]1C2` [Compound 7], the efflux pump substrate entry is on record as “diminished activity as efflux pump substrates compared to Compound 4”.

For the molecule `COc1cc(/C=C/c2cc(O)c3c(c2)C[C@@H]2C(C)(C)[C@H](O)CC[C@@]2(C)O3)cc2c1ccn2C` [Compound 9], the efflux pump substrate result is “diminished activity as efflux pump substrates compared to Compound 4”.

In the case of `COc1cc(/C=C/c2cc(O)c3c(CC=C(C)C)c[nH]c3c2)cc2c1O[C@]1(C)CC[C@@H](O)C(C)(C)[C@H]1C2` [Compound 10], the efflux pump substrate result is listed as “diminished activity as efflux pump substrates compared to Compound 4”.
